Source: PubChem BioAssay (NCI)
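Test compounds were applied to cells in 96-well plates for 48 hours at 5 doses. Here, GI50 denotes the concentration required for 50% inhibition of growth. TGI denotes the concentration required for complete inhibition of growth.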

Experiments:
Test in all cases: growth of human tumour cells (NCI), 48 h
786-0 renal = test system: 786-0 renal
SNB-19 CNS = test system: SNB-19 CNS
TK-10 renal = test system: TK-10 renal
M14 melanoma = test system: M14 melanoma
CAKI-1 renal = test system: CAKI-1 renal
RXF 393 renal = test system: RXF 393 renal
SK-MEL-2 melanoma = test system: SK-MEL-2 melanoma
SR leukemia = test system: SR leukemia
SF-295 CNS = test system: SF-295 CNS
SN12C renal = test system: SN12C renal
HCC-2998 colon = test system: HCC-2998 colon
OVCAR-3 ovarian = test system: OVCAR-3 ovarian
DU-145 prostate = test system: DU-145 prostate
HS 578T breast = test system: HS 578T breast
NCI-H23 lung = test system: NCI-H23 lung
SNB-75 CNS = test system: SNB-75 CNS
OVCAR-5 ovarian = test system: OVCAR-5 ovarian
OVCAR-8 ovarian = test system: OVCAR-8 ovarian
SF-268 CNS = test system: SF-268 CNS
NCI-H460 lung = test system: NCI-H460 lung
SK-OV-3 ovarian = test system: SK-OV-3 ovarian
COLO 205 colon = test system: COLO 205 colon
BT-549 breast = test system: BT-549 breast
A498 renal = test system: A498 renal
SF-539 CNS = test system: SF-539 CNS
HOP-62 NSCLC = test system: HOP-62 NSCLC
HCT-15 colon = test system: HCT-15 colon
K-562 leukemia = test system: K-562 leukemia
SK-MEL-5 melanoma = test system: SK-MEL-5 melanoma

O=C(Nc1cccc(Cl)c1)Nc1nc2ccc([N+](=O)[O-])cc2s1
GI50 (786-0 renal): 409 nM
TGI (786-0 renal): 1690 nM
GI50 (SNB-19 CNS): 531 nM
TGI (SNB-19 CNS): 4280 nM
GI50 (TK-10 renal): 808 nM
TGI (TK-10 renal): 5490 nM
GI50 (M14 melanoma): 660 nM
TGI (M14 melanoma): 2540 nM
GI50 (CAKI-1 renal): 483 nM
TGI (CAKI-1 renal): 2240 nM
GI50 (RXF 393 renal): 458 nM
TGI (RXF 393 renal): 1790 nM
GI50 (SK-MEL-2 melanoma): 434 nM
TGI (SK-MEL-2 melanoma): 2030 nM
GI50 (SR leukemia): 350 nM
TGI (SR leukemia): 1910 nM
GI50 (SF-295 CNS): 527 nM
TGI (SF-295 CNS): 1970 nM
GI50 (SN12C renal): 447 nM
TGI (SN12C renal): 2520 nM
GI50 (HCC-2998 colon): 465 nM
TGI (HCC-2998 colon): 2210 nM
GI50 (OVCAR-3 ovarian): 402 nM
TGI (OVCAR-3 ovarian): 1750 nM
GI50 (DU-145 prostate): 693 nM
TGI (DU-145 prostate): 8470 nM
GI50 (HS 578T breast): 675 nM
TGI (HS 578T breast): 3340 nM
GI50 (NCI-H23 lung): 304 nM
TGI (NCI-H23 lung): 989 nM
GI50 (SNB-75 CNS): 539 nM
TGI (SNB-75 CNS): 3170 nM
GI50 (OVCAR-5 ovarian): 1790 nM
TGI (OVCAR-5 ovarian): 6830 nM
GI50 (OVCAR-8 ovarian): 1120 nM
TGI (OVCAR-8 ovarian): 11200 nM
GI50 (SF-268 CNS): 685 nM
TGI (SF-268 CNS): 3550 nM
GI50 (NCI-H460 lung): 398 nM
TGI (NCI-H460 lung): 1970 nM
GI50 (SK-OV-3 ovarian): 736 nM
TGI (SK-OV-3 ovarian): 5170 nM
GI50 (COLO 205 colon): 1260 nM
TGI (COLO 205 colon): 2840 nM
GI50 (BT-549 breast): 415 nM
TGI (BT-549 breast): 1400 nM
GI50 (A498 renal): 244 nM
TGI (A498 renal): 973 nM
GI50 (SF-539 CNS): 603 nM
TGI (SF-539 CNS): 2170 nM
GI50 (HOP-62 NSCLC): 911 nM
TGI (HOP-62 NSCLC): 3550 nM
GI50 (HCT-15 colon): 466 nM
TGI (HCT-15 colon): 2030 nM
GI50 (K-562 leukemia): 355 nM
TGI (K-562 leukemia): 1420 nM
GI50 (SK-MEL-5 melanoma): 315 nM
TGI (SK-MEL-5 melanoma): 1100 nM
